Measured values from US10604512B2, “3-(1H-indol-2-yl)-1H-indazoles and therapeutic uses thereof” (Samumed, LLC, priority 2015, dated 2020).

Legend:
[1] = test system: Wnt activity (Sp5-Luc reporter, TCF/LEF binding sites) in SW480 colon carcinoma cells; experiment: Screening assay for Wnt activity: Sp5-Luc reporter gene assay in stably transduced SW480 colon carcinoma cells; type: cell-based; settings: Homo sapiens; for EC50: overnight incubation, 10-point curve from 10 μM; for inhibition at 10 µM: given where EC50 >10 μM, read-out: percent inhibition at 10 μM
In short: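 SW480 cells stably transduced with a luciferase reporter driven by an Sp5 promoter of eight TCF/LEF sites were plated at 4,000 cells/well in 1% FBS medium. They were exposed overnight at 37° C to a 10-point 1:3 dilution series from 10 μM (0.1% DMSO). Luminescence was normalized to DMSO for four-parameter EC50, or percent inhibition at 10 μM.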

IL-6 = experiment: Inhibition of IL-6 in LPS-stimulated THP-1 human monocyte cells (HTRF); type: cell-based; settings: for EC50: IL-6 inhibition, LPS-stimulated THP-1 cells, HTRF; for inhibition at 10 µM: THP-1, printed beside >10 μM EC50, top concentration 10 μM, meaning not given, read-out: percentage in parentheses after EC50 >10
In short: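 THP-1 cells serum-reduced (1% FBS, 24 h), then 5000 cells/well preincubated 2 h with compound (10-point 1:3 series from 10 μM, 0.1% DMSO) before 500 ng/mL LPS for 22 h at 37 °C. Secreted IL-6 quantified by HTRF 665/620 ratio; DMSO-normalised duplicates fitted to four-parameter EC50; above 10 μM, % inhibition at 10 μM given.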

Structure (SMILES)	EC50 [1] [nM]	EC50 (IL-6) [nM]	inhibition at 10 µM (IL-6) [%]	inhibition at 10 µM [1] [%]
c1ccc(-c2ccc3[nH]nc(-c4cc5c(-c6ccoc6)cccc5[nH]4)c3c2)nc1 [Compound 336, 3-(4-(Furan-3-yl)-1H-indol-2-yl)-5-(pyridin-2-yl)-1H-indazole]	3910	90	–	–
c1csc(-c2cccc3[nH]c(-c4n[nH]c5ccc(-c6ccncc6)cc45)cc23)c1 [Compound 354, 5-(pyridin-4-yl)-3-(4-(thiophen-2-yl)-1H-indol-2-yl)-1H-indazole]	4940	150	–	–
CS(=O)(=O)NCc1cc(F)cc(-c2cccc3[nH]c(-c4n[nH]c5ccc(-c6ccncc6)cc45)cc23)c1 [Compound 494, N-(3-Fluoro-5-(2-(5-(pyridin-4-yl)-1H-indazol-3-yl)-1H-indol-4-yl)benzyl) methane sulfonamide]	3900	2330	–	–
Fc1cccc(-c2cccc3[nH]c(-c4n[nH]c5ccc(C6CCNCC6)cc45)cc23)c1 [Compound 533, 3-(4-(3-Fluorophenyl)-1H-indol-2-yl)-5-(piperidin-4-yl)-1H-indazole]	3830	2800	–	–
Fc1ccc(-c2cccc3[nH]c(-c4n[nH]c5ccc(C6=CCNCC6)cc45)cc23)cc1 [Compound 550, 3-(4-(4-Fluorophenyl)-1H-indol-2-yl)-5-(1,2,3,6-tetrahydropyridin-4-yl)-1H-indazole]	> 10000	> 10000	33.7	48
Cc1ncc(-c2ccc3[nH]nc(-c4cc5c(-c6ccncc6)cccc5[nH]4)c3c2)n1C [Compound 601, 5-(1,2-Dimethyl-1H-imidazol-5-yl)-3-(4-(pyridin-4-yl)-1H-indol-2-yl)-1H-indazole]	> 10000	4170	–	32.4
c1cc(N2CCCCC2)c2cc(-c3n[nH]c4ccc(-c5cncc(OC6CCCCC6)c5)cc34)[nH]c2c1 [Compound 635, 5-(5-(Cyclohexyloxy)pyridin-3-yl)-3-(4-(piperidin-1-yl)-1H-indol-2-yl)-1H-indazole]	2930	> 10000	22.6	–
CN1CCN(c2cccc3[nH]c(-c4n[nH]c5ccc(-c6cncc(NC(=O)CC7CCNCC7)c6)cc45)cc23)CC1 [Compound 669, N-(5-(3-(4-(4-Methylpiperazin-1-yl)-1H-indol-2-yl)-1H-indazol-5-yl)pyridin-3-yl)-2-(piperidin-4-yl)acetamide]	> 10000	> 10000	25.3	11.7

The next molecules have a lower EC50 [1] than those just listed; values first:

EC50 [1] [nM]	EC50 (IL-6) [nM]	Structure (SMILES)	inhibition at 10 µM (IL-6) [%]	inhibition at 10 µM [1] [%]
1090	208	c1ccc2[nH]c(-c3n[nH]c4ccc(-c5cncc(OCCN6CCCC6)c5)cc34)cc2c1 [Compound 686, 3-(1H-Indol-2-yl)-5-(5-(2-(pyrrolidin-1-yl)ethoxy)pyridin-3-yl)-1H-indazole]	–	–
908	270	O=C(Nc1cncc(-c2ccc3[nH]nc(-c4cc5ncccc5[nH]4)c3c2)c1)c1ccccc1 [Compound 515, N-(5-(3-(1H-Pyrrolo[3,2-b]pyridin-2-yl)-1H-indazol-5-yl)pyridin-3-yl) benzamide]	–	–
628	> 10000	c1cc(-c2ccoc2)c2cc(-c3n[nH]c4ccc(-c5cncc(OC6CCNCC6)c5)cc34)[nH]c2c1 [Compound 716, 3-(4-(Furan-3-yl)-1H-indol-2-yl)-5-(5-(piperidin-4-yloxy)pyridin-3-yl)-1H-indazole]	25.5	–
205	910	CS(=O)(=O)NCc1cc(F)cc(-c2cccc3[nH]c(-c4n[nH]c5ccc(-c6cncnc6)cc45)cc23)c1 [Compound 503, N-(3-Fluoro-5-(2-(5-(pyrimidin-5-yl)-1H-indazol-3-yl)-1H-indol-4-yl)benzyl) methanesulfonamide]	–	–
169	233	CN(C)Cc1cncc(-c2ccc3[nH]nc(-c4cc5c(-c6cccs6)cccc5[nH]4)c3c2)c1 [Compound 349, N,N-Dimethyl-1-(5-(3-(4-(thiophen-2-yl)-1H-indol-2-yl)-1H-indazol-5-yl)pyridin-3-yl)methanamine]	–	–
165	97	c1cnc2cc(-c3n[nH]c4ccc(-c5cncc(CN6CCCCC6)c5)cc34)[nH]c2c1 [Compound 519, 5-(5-(Piperidin-1-ylmethyl)pyridin-3-yl)-3-(1H-pyrrolo[3,2-b]pyridin-2-yl)-1H-indazole]	–	–
120	> 10000	CC(C)C(=O)Nc1cncc(-c2ccc3[nH]nc(-c4cc5c(-c6ccsc6)cccc5[nH]4)c3c2)c1 [Compound 289, N-(5-(3-(4-(Thiophen-3-yl)-1H-indol-2-yl)-1H-indazol-5-yl)pyridin-3-yl) isobutyramide]	48.3	–
115	> 10000	CC(C)(C)C(=O)Nc1cncc(-c2ccc3[nH]nc(-c4cc5c(-c6cc(F)cc(CNS(C)(=O)=O)c6)cccc5[nH]4)c3c2)c1 [Compound 484, N-(5-(3-(4-(3-Fluoro-5-(methylsulfonamidomethyl)phenyl)-1H-indol-2-yl)-1H-indazol-5-yl)pyridin-3-yl)pivalamide]	24.2	–
109	24	O=C(Nc1cncc(-c2ccc3[nH]nc(-c4cc5ncccc5[nH]4)c3c2)c1)C1CCC1 [Compound 525, N-(5-(3-(1H-Pyrrolo[3,2-b]pyridin-2-yl)-1H-indazol-5-yl)pyridin-3-yl) cyclobutanecarboxamide]	–	–
86	102	CC(C)CC(=O)Nc1cncc(-c2ccc3[nH]nc(-c4cc5ncccc5[nH]4)c3c2)c1 [Compound 506, N-(5-(3-(1H-Pyrrolo[3,2-b]pyridin-2-yl)-1H-indazol-5-yl)pyridin-3-yl)-3-methylbutanamide]	–	–
75	977	CC(C)CC(=O)Nc1cncc(-c2ccc3[nH]nc(-c4cc5c(-c6ccsc6)cccc5[nH]4)c3c2)c1 [Compound 282, 3-Methyl-N-(5-(3-(4-(thiophen-3-yl)-1H-indol-2-yl)-1H-indazol-5-yl)pyridin-3-yl)butanamide]	–	–
74	18	c1cncc(-c2ccc3[nH]nc(-c4cc5c(-c6cccs6)cccc5[nH]4)c3c2)c1 [Compound 340, 5-(Pyridin-3-yl)-3-(4-(thiophen-2-yl)-1H-indol-2-yl)-1H-indazole]	–	–
